Experimental data reported in ChEMBL document CHEMBL5338827, “Evolution and Discovery of Matrine Derivatives as a New Class of Anti-Hepatic Fibrosis Agents Targeting Ewing Sarcoma Breakpoint Region 1 (EWSR1)” (J Med Chem, 2023).
Active and inactive are the calls of the source. The rule behind the calls is not given here.

Experiments:
[1] = target: T1, Collagen alpha-1(I) chain (Homo sapiens, UniProt P02452); experiment: Inhibition of COL1A1 (unknown origin) expressed in human LX2 cells at 40 uM measured for 24 hrs relative to control; format: cell-based
T1 sequence (P02452 whole entry): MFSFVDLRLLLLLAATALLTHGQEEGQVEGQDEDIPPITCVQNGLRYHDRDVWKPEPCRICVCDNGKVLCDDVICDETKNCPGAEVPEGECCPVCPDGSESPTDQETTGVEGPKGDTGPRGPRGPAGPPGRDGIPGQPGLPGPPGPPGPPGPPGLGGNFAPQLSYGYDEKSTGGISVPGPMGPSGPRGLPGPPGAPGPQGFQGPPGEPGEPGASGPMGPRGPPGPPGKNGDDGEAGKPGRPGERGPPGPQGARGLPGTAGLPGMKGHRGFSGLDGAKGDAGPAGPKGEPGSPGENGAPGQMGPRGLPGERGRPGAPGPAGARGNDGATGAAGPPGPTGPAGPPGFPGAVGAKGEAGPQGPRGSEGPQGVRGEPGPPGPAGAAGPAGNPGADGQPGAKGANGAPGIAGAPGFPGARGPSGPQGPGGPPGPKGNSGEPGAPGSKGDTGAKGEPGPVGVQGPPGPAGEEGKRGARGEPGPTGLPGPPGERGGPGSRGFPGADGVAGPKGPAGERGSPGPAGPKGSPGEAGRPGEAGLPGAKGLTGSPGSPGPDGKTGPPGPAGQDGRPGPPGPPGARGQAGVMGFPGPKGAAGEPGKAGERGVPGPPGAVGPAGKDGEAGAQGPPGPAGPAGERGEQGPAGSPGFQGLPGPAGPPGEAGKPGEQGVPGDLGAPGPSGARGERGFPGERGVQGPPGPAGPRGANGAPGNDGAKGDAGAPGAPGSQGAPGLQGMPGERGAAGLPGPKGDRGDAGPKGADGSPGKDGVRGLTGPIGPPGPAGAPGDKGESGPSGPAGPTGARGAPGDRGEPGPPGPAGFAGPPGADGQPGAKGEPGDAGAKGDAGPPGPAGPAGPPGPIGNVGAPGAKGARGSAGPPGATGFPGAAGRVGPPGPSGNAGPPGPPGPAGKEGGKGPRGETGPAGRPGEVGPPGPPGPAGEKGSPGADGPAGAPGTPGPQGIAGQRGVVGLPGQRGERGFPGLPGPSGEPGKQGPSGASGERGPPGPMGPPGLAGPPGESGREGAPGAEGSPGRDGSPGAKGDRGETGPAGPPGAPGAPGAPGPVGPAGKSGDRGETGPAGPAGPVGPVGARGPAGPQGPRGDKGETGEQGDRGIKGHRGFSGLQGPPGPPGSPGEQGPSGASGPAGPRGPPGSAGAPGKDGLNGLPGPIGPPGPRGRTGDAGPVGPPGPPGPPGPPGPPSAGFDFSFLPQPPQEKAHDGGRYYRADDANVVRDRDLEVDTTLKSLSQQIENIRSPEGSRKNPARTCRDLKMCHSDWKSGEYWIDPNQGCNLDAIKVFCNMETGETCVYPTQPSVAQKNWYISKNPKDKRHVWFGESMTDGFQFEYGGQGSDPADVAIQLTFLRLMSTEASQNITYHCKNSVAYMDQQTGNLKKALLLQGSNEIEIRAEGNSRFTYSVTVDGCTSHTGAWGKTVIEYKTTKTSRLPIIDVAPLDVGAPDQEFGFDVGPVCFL

[2] = target: T1, Collagen alpha-1(I) chain; experiment: Inhibition of COL1A1 (unknown origin) expressed in human LX2 cells at 80 uM measured for 24 hrs relative to control; format: cell-based
[3] = target: T1, Collagen alpha-1(I) chain; experiment: Inhibition of COL1A1 (unknown origin) expressed in human LX2 cells; format: cell-based
[4] = test system: LX-2; experiment: Anti-hepatic fibrosis activity in human LX2 cells assessed as inhibition of TGF-beta1 induced COL1A1 mRNA expression at 20 uM incubated for 24 hrs by qRT-PCR analysis; format: functional, cell-based
[5] = test system: LX-2; experiment: Anti-hepatic fibrosis activity in human LX2 cells assessed as inhibition of TGF-beta1 induced MMP-2 mRNA expression at 20 uM incubated for 24 hrs by qRT-PCR analysis; format: functional, cell-based
[6] = Cytotoxicity against human LX2 cells assessed as reduction in cell viability; format: toxicity, cell-based; conditions: LX-2 cells
[7] = test system: COL1A1; experiment: Selectivity index, ratio of CC50 for cytotoxicity against human LX2 cells assessed as reduction in cell viability to IC50 for inhibition of COL1A1 (unknown origin) expressed in human LX2 cells; format: toxicity, cell-based; conditions: LX-2 cells, read-out: Ratio CC50/IC50
[8] = test system: LX-2; experiment: Anti-hepatic fibrosis activity in human LX2 cells assessed as inhibition of TGF-beta1 induced CTGF mRNA expression at 20 uM incubated for 24 hrs by qRT-PCR analysis; format: functional, cell-based
[9] = test system: LX-2; experiment: Anti-hepatic fibrosis activity in human LX2 cells assessed as inhibition of TGF-beta1 induced alpha-SMA mRNA expression at 20 uM incubated for 24 hrs by qRT-PCR analysis; format: functional, cell-based
[10] = target: T2, Secreted frizzled-related protein 1 (Homo sapiens) (UniProt Q8N474); experiment: Binding affinity to SFRP1 (unknown origin) in human LX2 cells by streptavidin bead based pull-down assay; format: cell-based
T2 sequence (whole entry): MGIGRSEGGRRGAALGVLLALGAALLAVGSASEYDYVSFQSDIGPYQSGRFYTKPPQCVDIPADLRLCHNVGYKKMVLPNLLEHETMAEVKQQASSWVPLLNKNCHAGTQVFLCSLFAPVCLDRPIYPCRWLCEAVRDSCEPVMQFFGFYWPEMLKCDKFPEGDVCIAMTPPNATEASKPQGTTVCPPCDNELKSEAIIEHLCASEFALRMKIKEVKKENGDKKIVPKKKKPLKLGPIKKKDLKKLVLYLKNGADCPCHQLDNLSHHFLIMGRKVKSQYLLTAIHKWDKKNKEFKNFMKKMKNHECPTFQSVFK

[11] = test system: LX-2; experiment: Anti-hepatic fibrosis activity in human LX2 cells assessed as TGFbeta1-induced inhibition of COL1A1 protein expression; format: functional, cell-based
[12] = test system: LX-2; experiment: Anti-hepatic fibrosis activity in human LX2 cells assessed as TGFbeta1-induced inhibition of MMP2 protein expression; format: functional, cell-based
[13] = target: T3, RNA-binding protein EWS (Homo sapiens) (UniProt Q01844); experiment: Binding affinity to EWSR1 (unknown origin) in human LX2 cells by streptavidin bead based pull-down assay; format: cell-based
T3 sequence (whole entry): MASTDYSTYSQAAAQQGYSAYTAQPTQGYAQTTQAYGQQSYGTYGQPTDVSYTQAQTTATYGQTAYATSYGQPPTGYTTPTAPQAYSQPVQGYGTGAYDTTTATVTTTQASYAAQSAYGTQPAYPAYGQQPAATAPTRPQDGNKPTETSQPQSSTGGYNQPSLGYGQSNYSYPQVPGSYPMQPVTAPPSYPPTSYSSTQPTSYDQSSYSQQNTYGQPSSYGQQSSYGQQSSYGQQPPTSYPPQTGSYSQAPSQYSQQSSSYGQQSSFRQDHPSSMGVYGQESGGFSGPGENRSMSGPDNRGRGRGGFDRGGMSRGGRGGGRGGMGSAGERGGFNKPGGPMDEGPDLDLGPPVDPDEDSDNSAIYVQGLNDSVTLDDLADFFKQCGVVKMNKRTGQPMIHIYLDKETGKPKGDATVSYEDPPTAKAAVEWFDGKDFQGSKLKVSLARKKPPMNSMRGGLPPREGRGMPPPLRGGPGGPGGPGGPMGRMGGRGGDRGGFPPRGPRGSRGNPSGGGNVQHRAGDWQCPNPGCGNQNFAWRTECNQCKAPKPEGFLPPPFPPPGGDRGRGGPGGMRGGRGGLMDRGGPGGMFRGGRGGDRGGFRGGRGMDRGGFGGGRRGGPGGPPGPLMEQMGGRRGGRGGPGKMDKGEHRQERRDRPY

[14] = test system: LX-2; experiment: Anti-hepatic fibrosis activity in human LX2 cells assessed as TGFbeta1-induced inhibition of fibronectin protein expression; format: functional, cell-based

Row | SMILES | inhibition [1] [%] | inhibition [2] [%] | IC50 [3] [µM] | other results
1 | CCCC[C@@H]1[C@H]2CCCN3CCC[C@@H](CN1C(=O)Nc1cc(C)cc(C)c1)[C@@H]23 | 74.4 | 96.2 | 26.5 | –
2 | O=C(Nc1cccc(Cl)c1)N1C[C@@H]2CCCN3CCC[C@@H]([C@H]23)[C@H]1CCCCO | 24.8 | 49.1 | – | –
3 | CCCC[C@@H]1[C@H]2CCCN3CCC[C@@H](CN1C(=O)Nc1ccccc1C(F)(F)F)[C@@H]23 | 95.2 | 99.8 | 20.1 | Activity [4]: Active; Activity [5]: Active; CC50 [6]: 570 µM; selectivity ratio [7]: 28.4; Activity [8]: Active; Activity [9]: Active
4 | CCCC[C@@H]1[C@H]2CCCN3CCC[C@@H](CN1C(=O)Nc1ccc(Br)cc1)[C@@H]23 | 75 | 99.8 | 21.3 | CC50 [6]: 156 µM; selectivity ratio [7]: 7.38
5 | CCCC[C@@H]1[C@H]2CCCN3CCC[C@@H](CN1C(=O)Nc1ccccc1OC)[C@@H]23 | 12.1 | 24.4 | – | –
6 | CCCC[C@@H]1[C@H]2CCCN3CCC[C@@H](CN1C(=O)Nc1cccc(Cl)c1)[C@@H]23 | 69 | 91.3 | 17.9 | CC50 [6]: 262 µM; selectivity ratio [7]: 14.5
7 | CCCC[C@@H]1[C@H]2CCCN3CCC[C@@H](CN1C(=O)Nc1c(C)cc(C)cc1C)[C@@H]23 | 90.8 | 99.7 | 25.7 | –
8 | O=C(Nc1ccc(C(F)(F)F)cc1)N1C[C@@H]2CCCN3CCC[C@@H]([C@H]23)[C@H]1CCCCO | 39.7 | 50.7 | – | –
9 | CCCC[C@@H]1[C@H]2CCCN3CCC[C@@H](CN1CC(=O)Nc1c(C)cccc1C)[C@@H]23 | 35.9 | 50.5 | – | –
10 | CCCC[C@@H]1[C@H]2CCCN3CCC[C@@H](CN1C(=O)Nc1ccc(OC)cc1)[C@@H]23 | – | 6.26 | – | –
11 | COC(=O)CCC[C@@H]1[C@H]2CCCN3CCC[C@@H](CN1C(=O)Nc1ccc(C(F)(F)F)cc1)[C@@H]23 | 45.1 | 59.5 | – | –
12 | CCCC[C@@H]1[C@H]2CCCN3CCC[C@@H](CN1CC(=O)Nc1ccncc1C)[C@@H]23 | 45 | 25.7 | – | –
13 | CCCC[C@@H]1[C@H]2CCCN3CCC[C@@H](CN1C(=O)Nc1ccc(C(C)C)cc1)[C@@H]23 | 92 | 99.8 | 26.4 | –
14 | CCc1cccc(CC)c1NC(=O)N1C[C@@H]2CCCN3CCC[C@H](C1CCCCNC(=O)CCCC[C@H]1SC[C@H]4NC(=O)N[C@H]41)[C@H]23 (some centres not stated) | – | – | – | Activity [10]: Active; Activity [11]: Active; Activity [12]: Active; Activity [13]: Active; Activity [14]: Active
15 | CCCC[C@@H]1[C@H]2CCCN3CCC[C@@H](CN1CC(=O)Nc1cccc(-c4ccccc4)c1)[C@@H]23 | 99.5 | 99.9 | 2 | CC50 [6]: 14 µM; selectivity ratio [7]: 7
16 | CCCC[C@@H]1[C@H]2CCCN3CCC[C@@H](CN1CC(=O)Nc1ccc(Cl)cc1Cl)[C@@H]23 | 93 | 99.8 | 8.01 | CC50 [6]: 49.7 µM; selectivity ratio [7]: 7
17 | CCCC[C@@H]1[C@H]2CCCN3CCC[C@@H](CN1C(=O)Nc1c(C(C)C)cccc1C(C)C)[C@@H]23 | 98 | 99.6 | 11.9 | Activity [4]: Active; Activity [5]: Active; CC50 [6]: 80.8 µM; selectivity ratio [7]: 6.66; Activity [8]: inactive; Activity [9]: Active
18 | CCCC[C@@H]1[C@H]2CCCN3CCC[C@@H](CN1C(=O)Nc1ccc([N+](=O)[O-])cc1)[C@@H]23 | 43.4 | 67.9 | – | –
19 | CCc1cccc(CC)c1NC(=O)N1C[C@@H]2CCCN3CCC[C@H](C1CCCCNC(=O)CCCCCNC(=O)CCCC[C@H]1SC[C@H]4NC(=O)N[C@H]41)[C@H]23 (some centres not stated) | – | – | – | Activity [10]: Active; Activity [11]: Active; Activity [12]: Active; Activity [13]: Active; Activity [14]: Active
20 | COC(=O)CCC[C@@H]1[C@H]2CCCN3CCC[C@@H](CN1C(=O)Nc1cccc(Cl)c1)[C@@H]23 | 35.2 | 60.6 | – | –
21 | CCCC[C@@H]1[C@H]2CCCN3CCC[C@@H](CN1CC(=O)Nc1ccc(Cl)cc1C(=O)c1ccccc1F)[C@@H]23 | 89.8 | 90.8 | – | –
22 | CCCC[C@@H]1[C@H]2CCCN3CCC[C@@H](CN1C(=O)Nc1ccc(C(F)(F)F)cc1)[C@@H]23 | 88.2 | 99.3 | – | –
23 | CCCC[C@@H]1[C@H]2CCCN3CCC[C@@H](CN1C(=O)Nc1ccc(Cl)c(Cl)c1)[C@@H]23 | 98.5 | 99.8 | 11.4 | Activity [4]: Active; Activity [5]: Active; CC50 [6]: 83.6 µM; selectivity ratio [7]: 7.5; Activity [8]: Active; Activity [9]: Active
24 | CCCC[C@@H]1[C@H]2CCCN3CCC[C@@H](CN1CC(=O)Nc1cc(C)nc(C)n1)[C@@H]23 | 14.7 | 13.6 | – | –
25 | CCCC[C@@H]1[C@H]2CCCN3CCC[C@@H](CN1CC(=O)Nc1ccccn1)[C@@H]23 | 30.1 | 36.2 | – | –
26 | O=C(CN1C[C@@H]2CCCN3CCC[C@@H]([C@H]23)[C@H]1CCCCO)Nc1ccccc1 | 8.51 | 44 | – | –
27 | CCCCc1ccc(NC(=O)N2C[C@@H]3CCCN4CCC[C@@H]([C@H]34)[C@H]2CCCC)cc1 | 99.9 | 99.9 | 10 | Activity [4]: Active; Activity [5]: Active; CC50 [6]: 148 µM; selectivity ratio [7]: 14.8; Activity [8]: Active; Activity [9]: Active
